Results published in PubChem BioAssay (NCI).
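Assay format: 96-well plates, 48-hour exposure. The concentration for 50% growth inhibition is given as GI50. TGI marks complete inhibition of growth.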 *1 amine or outer side, *2 acyl side, *3 side chain or, on linkers, in order; H or OH if unused. Where a SMILES comes first, the peptide text is derived from it. Bridges are numbered along the chain shown (N, C = ends). Roman numbers before positions name the chains, in order. [ ]: non-standard residue; d: D form. Actinocin(9to1) = Cc1c2oc3c(C)ccc(C(=O)[*:1])c3nc-2c(C(=O)[*:2])c(N)c1=O; NMeV = CN[CH](C(=O)O)C(C)C; Sar = CNCC(=O)O

Experiments:
Experiment in all cases: DTP human tumour cell line panel, 48 h
786-0 renal = tested on: 786-0 renal
SF-295 CNS = tested on: SF-295 CNS
NCI/ADR-RES ovarian = tested on: NCI/ADR-RES ovarian
HCT-15 colon = tested on: HCT-15 colon
SNB-75 CNS = tested on: SNB-75 CNS
DU-145 prostate = tested on: DU-145 prostate
ACHN renal = tested on: ACHN renal
CAKI-1 renal = tested on: CAKI-1 renal
NCI-H460 lung = tested on: NCI-H460 lung
T-47D breast = tested on: T-47D breast

SMILES	TGI (786-0 renal) [µM]	TGI (SF-295 CNS) [µM]	TGI (NCI/ADR-RES ovarian) [µM]	TGI (HCT-15 colon) [µM]	TGI (SNB-75 CNS) [µM]	TGI (DU-145 prostate) [µM]	TGI (ACHN renal) [µM]	TGI (CAKI-1 renal) [µM]	TGI (NCI-H460 lung) [µM]	GI50 (SF-295 CNS) [µM]	GI50 (HCT-15 colon) [µM]	GI50 (SNB-75 CNS) [µM]	GI50 (CAKI-1 renal) [µM]	GI50 (NCI-H460 lung) [µM]	GI50 (NCI/ADR-RES ovarian) [µM]	GI50 (DU-145 prostate) [µM]	GI50 (ACHN renal) [µM]	GI50 (T-47D breast) [µM]	TGI (T-47D breast) [µM]
CCOc1nc(-c2ccccc2)cc(-c2ccc(N3CCOCC3)cc2)c1C#N	> 100	> 100	> 100	> 100	> 100	> 100	> 100	> 100	> 100	–	–	–	–	–	–	–	–	–	–
O=C1NC2(CCCCC2)C2CCCCCC12 (stereo not drawn)	–	> 100	–	> 100	> 100	–	> 100	–	> 100	–	–	–	–	–	–	–	–	–	–
N#C[S-].[Nd+3].c1ccc(-c2ccccn2)nc1.c1ccc(-c2ccccn2)nc1.c1ccc(-c2ccccn2)nc1	–	5.8	–	> 100	84.4	–	–	> 100	37.3	2.35	3.82	5.69	5.9	4.25	–	–	–	–	–
C#CC(F)(F)[C@]1(O)CC[C@H]2[C@@H]3CCC4=CC(=O)CCC4=C3[C@@H](c3ccc(C(C)=O)cc3)C[C@@]21C	–	–	59	56.8	> 100	95.1	97	–	> 68.2	–	14.3	3.82	–	21.5	13.8	20.1	10.1	< 0.0135	36.1
Fc1ccc(N=NN2CCCC2)cc1	> 100	> 100	–	> 100	–	> 100	> 100	> 100	> 100	–	–	–	–	–	–	–	–	–	> 100
c1ccc2c(c1)CCc1cc3cc4c(nc3nc1-2)-c1ccccc1CC4	> 100	> 100	–	> 100	> 100	–	> 100	–	> 100	–	–	–	–	–	–	–	–	–	–
O=C(NC1CCN(Cc2ccccc2)CC1)c1cc2nc(-c3ccc(Cl)s3)cc(C(F)(F)F)n2n1	–	> 100	> 100	–	> 100	> 100	–	> 100	–	> 100	–	10.5	> 100	–	> 100	> 100	–	41.3	> 100
CC(C)c1ccc(/C=C2\CSCC3=C2NC(=S)NC3c2ccc(C(C)C)cc2)cc1 (stereo not drawn)	> 100	> 100	> 100	> 100	–	> 100	> 100	> 100	> 100	–	–	–	–	–	–	–	–	–	> 100
Cc1c2oc3c(C)ccc(C(=O)NC4C(=O)NC(C(C)O)C(=O)N5CCCC5C(=O)N(C)CC(=O)N(C)C(C(C)C)C(=O)OC4C)c3nc-2c(C(=O)NC2C(=O)NC(C(C)O)C(=O)N3CCCC3C(=O)N(C)CC(=O)N(C)C(C(C)C)C(=O)OC2C)c(N)c1=O (stereo not drawn) (I: TTP[Sar][NMeV] / II: TTP[Sar][NMeV]; ester I:1-I:C, II:1-II:C; linker I:N-II:N via Actinocin(9to1); configuration not given here)	–	> 100	> 100	> 100	1.95	> 100	10.9	> 100	> 100	–	–	–	–	–	–	–	–	–	> 100
COC(=O)/C=C(/C(=O)OC)c1c(C)c(C)c2c(C)cc(C)cc(C)c1-2	> 100	> 100	> 100	> 100	–	> 100	> 100	> 100	> 100	–	–	–	–	–	–	–	–	–	> 100
CCCCOP1(=O)C=C(C)C(=C(Cl)Cl)C(C)=C1 (stereo not drawn)	53	25.9	–	40.8	> 94.4	–	23.6	27.8	36	–	–	–	–	–	–	–	–	–	–
